# Measured values from patent publication US11058680B2, “Combinations of opioid/TLR4 antagonists and acetaminophen for use in the treatment of emotional pain and insomnia” (Allodynic Threapeutics, LLC, priority 2016, dated 2021).
# Several values for one entry are separate records, joined by “and”; a condition that tells them apart may be missing. Equal values may be shown once.
# Tested on: migraine attacks
# Assay: Naltrexone/acetaminophen open-label pilot study, acute treatment of migraine: headache pain (4-point scale; relief score ≤1, pain-free score = 0), associated symptoms, additional meds
# Format: in vivo, human
# Experimental: Sixteen unique patients were enrolled in an open phase pilot study for the acute treatment of migraine attacks, insomnia, and emotional pain. Of the sixteen patients, eleven were evaluated for one migraine attack, one for two attacks, two for four attacks, one for six attacks, and one for fourteen attacks. A total of forty-one […] treatments were evaluated. Patients received a single dose of one of the following treatment options:
# The majority of the patients remained in the clinic for observation for 2 hours after dosing. They completed headache diary assessments immediately before and after dosing at time points: 7, 15, and 30 minutes; and 1, 1.5, 2, 3, 6, 12, 24, and 48 hours. Headache pain was assessed on a 4-point scale (0=none; 1=mild; 2=moderate; 3=severe). The assessment of photophobia, phonophobia, nausea, and neck/shoulder pain was assessed as present or absent. The assessment of emotional pain was recorded on a 4-point scale (0=none, 1=mild, 2=moderate, 3=severe). The assessment of difficulty sleeping or falling asleep (insomnia) was assessed on a 4-point scale (0=none, 1=mild, 2=moderate, 3=severe) at baseline, for the night before treatment and for the following nights at 24, and 48 hours. Patients recorded side effects severity at each time point. Patients recorded the time of the first rescue medication dose and all additional headache medications used within 48 hours. Patients were required to stay awake to record their assessments in the first 2 hours, sleeping was permitted thereafter. While asleep, assessments were completed according to patients' best estimation. For data analysis, it was assumed that a migraine attack is a unique patient. Patients were asked to specify (yes or no answer) to whether they experienced emotional pain symptoms such as: hurt feelings, sadness, fear, or anger. Patients who replied positively to having emotional pain were asked to specify the cause into one of the following options: relationship, work/school, money/debt, health, or loss/grief.
# [1] = 1 h, NTX/APAP 3.25 mg/325 mg, NTX 3.25 mg
# [2] = 1 h, NTX/APAP 5 mg/325 mg, NTX 5 mg
# [3] = 1 h, NTX/APAP […]325 mg, NTX 1.5 mg
# [4] = 1 h, naltrexone/acetaminophen 2.25 mg/325 mg (N=21), naltrexone 2.25 mg (N=9)
# [5] = 90 min, NTX/APAP 2.25 mg/325 mg, NTX 2.25 mg
# [6] = 90 min, NTX/APAP 3.25 mg/325 mg, NTX 3.25 mg
# [7] = 90 min, NTX/APAP 5 mg/325 mg, NTX 5 mg
# [8] = 90 min, NTX/APAP […]325 mg, NTX 1.5 mg
# [9] = 90 min, naltrexone/acetaminophen 2.25 mg/325 mg (N=21), naltrexone 2.25 mg (N=9)
# [10] = 2 h, NTX/APAP 2.25 mg/325 mg, NTX 2.25 mg
# [11] = 2 h, NTX/APAP 3.25 mg/325 mg, NTX 3.25 mg
# [12] = 2 h, NTX/APAP 5 mg/325 mg, NTX 5 mg
# [13] = 2 h, NTX/APAP […]325 mg, NTX 1.5 mg
# [14] = 2 h, naltrexone/acetaminophen 2.25 mg/325 mg (N=21), naltrexone 2.25 mg (N=9)
# [15] = 3 h, NTX/APAP 2.25 mg/325 mg, NTX 2.25 mg
compound,measurement,setting,value
O=C1CC[C@@]2(O)[C@H]3Cc4ccc(O)c5c4[C@@]2(CCN3CC2CC2)[C@H]1O5 [naltrexone],Headache pain-relief,[1],3 (100) n (%)
same,Most bothersome symptom free,[1],2 (66) n (%)
same,Nausea-free,[1],3 (100) n (%)
same,Neck/shoulder pain-free,[1],3 (100) n (%)
same,Phonophobia-free,[1],2 (66) n (%)
same,Photophobia-free,[1],1 (33) n (%)
same,Additional meds taken,[2],0
same,Headache pain-free,[2],0 n (%)
same,Headache pain-relief,[2],1 n (%)
same,Most bothersome symptom free,[2],1 n (%)
same,Nausea-free,[2],1 n (%)
same,Neck/shoulder pain-free,[2],1 n (%)
same,Phonophobia-free,[2],1 n (%)
same,Photophobia-free,[2],1 n (%)
same,Additional meds taken,[3],0
same,Headache pain-free,[3],1 (33) n (%)
same,Headache pain-relief,[3],2 (66) n (%)
same,Most bothersome symptom free,[3],1 (33) n (%)
same,Nausea-free,[3],3 (100) n (%)
same,Neck/shoulder pain-free,[3],2 (66) n (%)
same,Phonophobia-free,[3],1 (33) n (%)
same,Photophobia-free,[3],2 (66) n (%)
same,Additional meds taken,"1 h, all doses combined",0
same,Headache pain-free,"1 h, all doses combined",8 (50) n (%)
same,Headache pain-relief,"1 h, all doses combined",13 (81) n (%)
same,Most bothersome symptom free,"1 h, all doses combined",11 (69) n (%)
same,Nausea-free,"1 h, all doses combined",12 (75) n (%)
same,Neck/shoulder pain-free,"1 h, all doses combined",12 (75) n (%)
same,Phonophobia-free,"1 h, all doses combined",12 (75) n (%)
same,Photophobia-free,"1 h, all doses combined",10 (63) n (%)
same,Headache pain-free,"1 h, naltrexone 1.5 mg (N=3)",33%
same,Headache pain-free,[4],44%
same,Headache pain-relief,[4],88%
same,Most bothersome symptom-free,[4],77%
same,Headache pain-free,"1 h, naltrexone/acetaminophen 3.25 mg/325 mg (N=3), naltrexone 3.25 mg (N=3)",100%
same,Additional meds taken,[5],0 (0)
same,Headache pain-free,[5],7 (77) n (%)
same,Headache pain-relief,[5],9 (100) n (%)
same,Most bothersome symptom free,[5],9 (100) n (%)
same,Nausea-free,[5],9 (100) n (%)
same,Neck/shoulder pain-free,[5],9 (100) n (%)
same,Phonophobia-free,[5],9 (100) n (%)
same,Photophobia-free,[5],8 (88) n (%)
same,Additional meds taken,[6],0 (0)
same,Headache pain-free,[6],3 (100) n (%)
same,Headache pain-relief,[6],3 (100) n (%)
same,Most bothersome symptom free,[6],2 (66) n (%)
same,Nausea-free,[6],2 (66) n (%)
same,Neck/shoulder pain-free,[6],3 (100) n (%)
same,Phonophobia-free,[6],2 (66) n (%)
same,Photophobia-free,[6],2 (66) n (%)
same,Additional meds taken,[7],0 (0)
same,Headache pain-free,[7],1 (100) n (%)
same,Headache pain-relief,[7],1 (100) n (%)
same,Most bothersome symptom free,[7],1 (100) n (%)
same,Nausea-free,[7],1 (100) n (%)
same,Neck/shoulder pain-free,[7],1 (100) n (%)
same,Phonophobia-free,[7],1 (100) n (%)
same,Photophobia-free,[7],1 (100) n (%)
same,Additional meds taken,[8],0 (0)
same,Headache pain-free,[8],1 (33) n (%)
same,Headache pain-relief,[8],3 (100) n (%)
same,Most bothersome symptom free,[8],2 (66) n (%)
same,Nausea-free,[8],3 (100) n (%)
same,Neck/shoulder pain-free,[8],1 (33) n (%)
same,Phonophobia-free,[8],1 (100) n (%)
same,Photophobia-free,[8],1 (100) n (%)
same,Additional meds taken,"90 min, all doses combined",0
same,Headache pain-free,"90 min, all doses combined",13 (81) n (%)
same,Headache pain-relief,"90 min, all doses combined",16 (100) n (%)
same,Most bothersome symptom free,"90 min, all doses combined",14 (88) n (%)
same,Nausea-free,"90 min, all doses combined",16 (100) n (%)
same,Neck/shoulder pain-free,"90 min, all doses combined",14 (88) n (%)
same,Phonophobia-free,"90 min, all doses combined",13 (81) n (%)
same,Photophobia-free,"90 min, all doses combined",12 (75) n (%)
same,Headache pain-free,"90 min, naltrexone 1.5 mg (N=3)",100%
same,Headache pain-free,[9],77% and 100%
same,Headache pain-relief,[9],100%
same,Most bothersome symptom-free,[9],100%
same,Headache pain-free,"90 min, naltrexone/acetaminophen 3.25 mg/325 mg (N=3), naltrexone 3.25 mg (N=3)",100%
same,Additional meds taken,[10],0
same,Headache pain-free,[10],7 (77) n (%)
same,Headache pain-relief,[10],9 (100) n (%)
same,Most bothersome symptom free,[10],9 (100) n (%)
same,Nausea-free,[10],9 (100) n (%)
same,Neck/shoulder pain-free,[10],9 (100) n (%)
same,Phonophobia-free,[10],9 (100) n (%)
same,Photophobia-free,[10],8 (88) n (%)
same,Additional meds taken,[11],0
same,Headache pain-free,[11],3 (100) n (%)
same,Headache pain-relief,[11],3 (100) n (%)
same,Most bothersome symptom free,[11],3 (100) n (%)
same,Nausea-free,[11],3 (100) n (%)
same,Neck/shoulder pain-free,[11],3 (100) n (%)
same,Phonophobia-free,[11],3 (100) n (%)
same,Photophobia-free,[11],3 (100) n (%)
same,Additional meds taken,[12],0
same,Headache pain-free,[12],1 n (%)
same,Headache pain-relief,[12],1 n (%)
same,Most bothersome symptom free,[12],1 n (%)
same,Nausea-free,[12],1 n (%)
same,Neck/shoulder pain-free,[12],1 n (%)
same,Phonophobia-free,[12],1 n (%)
same,Photophobia-free,[12],1 n (%)
same,Additional meds taken,[13],0
same,Headache pain-free,[13],3 (100) n (%)
same,Headache pain-relief,[13],3 (100) n (%)
same,Most bothersome symptom free,[13],3 (100) n (%)
same,Nausea-free,[13],3 (100) n (%)
same,Neck/shoulder pain-free,[13],3 (100) n (%)
same,Phonophobia-free,[13],3 (100) n (%)
same,Photophobia-free,[13],3 (100) n (%)
same,Additional meds taken,"2 h, combined doses",0
same,Headache pain-free,"2 h, combined doses",14 (88) n (%)
same,Headache pain-relief,"2 h, combined doses",16 (100) n (%)
same,Most bothersome symptom free,"2 h, combined doses",16 (100) n (%)
same,Nausea-free,"2 h, combined doses",16 (100) n (%)
same,Neck/shoulder pain-free,"2 h, combined doses",16 (100) n (%)
same,Phonophobia-free,"2 h, combined doses",16 (100) n (%)
same,Photophobia-free,"2 h, combined doses",16 (100) n (%)
same,Headache pain-free,"2 h, naltrexone 1.5 mg (N=3)",100%
same,Headache pain-free,[14],77% and 100%
same,Headache pain-relief,[14],100%
same,Most bothersome symptom-free,[14],100%
same,Headache pain-free,"2 h, naltrexone/acetaminophen 3.25 mg/325 mg (N=3), naltrexone 3.25 mg (N=3)",100%
same,Additional meds taken,[15],0 (0)
same,Headache pain-free,[15],7 (77) n (%)
same,Headache pain-relief,[15],9 (100) n (%)
same,Most bothersome symptom free,[15],9 (100) n (%)
same,Nausea-free,[15],9 (100) n (%)
same,Neck/shoulder pain-free,[15],9 (100) n (%)
same,Phonophobia-free,[15],9 (100) n (%)
